Measurements published in ChEMBL document CHEMBL3045645, “Organophosphorus derivatives containing isatin-3-hydrazones as chemotherapeutants against fungal pathogens of sugarcane” (2008).
Values after ≈ are worked out from the molar mass of the structure shown.

What was measured:
Assay type in all cases: functional
Curvularia pallescens [1] = assay: Ratio of thiophanate MIC to compound MIC for Cochliobolus pallescens after 7 days by food poison technique
Curvularia pallescens [2] = assay: Ratio of mancozeb MIC to compound MIC for Cochliobolus pallescens after 7 days by food poison technique
Curvularia pallescens [3] = assay: Ratio of copper oxychloride MIC to compound MIC for Cochliobolus pallescens after 7 days by food poison technique
Curvularia pallescens [4] = assay: Ratio of carbendazim MIC to compound MIC for Cochliobolus pallescens after 7 days by food poison technique
Fusarium oxysporum [5] = assay: Ratio of thiophanate MIC to compound MIC for Fusarium oxysporum after 7 days by food poison technique
Fusarium oxysporum [6] = assay: Ratio of mancozeb MIC to compound MIC for Fusarium oxysporum after 7 days by food poison technique
Fusarium oxysporum [7] = assay: Ratio of copper oxychloride MIC to compound MIC for Fusarium oxysporum after 7 days by food poison technique
Fusarium oxysporum [8] = assay: Ratio of carbendazim MIC to compound MIC for Fusarium oxysporum after 7 days by food poison technique
Colletotrichum falcatum [9] = assay: Ratio of thiophanate MIC to compound MIC for Glomerella tucumanensis after 7 days by food poison technique
Colletotrichum falcatum [10] = assay: Ratio of mancozeb MIC to compound MIC for Glomerella tucumanensis after 7 days by food poison technique
Colletotrichum falcatum [11] = assay: Ratio of copper oxychloride MIC to compound MIC for Glomerella tucumanensis after 7 days by food poison technique
Colletotrichum falcatum [12] = assay: Ratio of carbendazim MIC to compound MIC for Glomerella tucumanensis after 7 days by food poison technique
Curvularia pallescens [13] = assay: Antifungal activity against Cochliobolus pallescens assessed as mycelial growth inhibition at 28 +/-2 degC after 7 days by food poison technique; details: 168 h
Fusarium oxysporum [14] = assay: Antifungal activity against Fusarium oxysporum assessed as mycelial growth inhibition at 28 +/-2 degC after 7 days by food poison technique; details: 168 h
Colletotrichum falcatum [15] = assay: Antifungal activity against Glomerella tucumanensis assessed as mycelial growth inhibition at 28 +/-2 degC after 7 days by food poison technique; details: 168 h
Curvularia pallescens [16] = assay: Antifungal activity against Cochliobolus pallescens assessed as mycelial growth inhibition at 1000 ppm at 28 +/-2 degC after 7 days by food poison technique; details: 168 h, read-out: GI
Curvularia pallescens [17] = assay: Antifungal activity against Cochliobolus pallescens assessed as mycelial growth inhibition at 100 ppm at 28 +/-2 degC after 7 days by food poison technique; details: 168 h, read-out: GI
Curvularia pallescens [18] = assay: Antifungal activity against Cochliobolus pallescens assessed as mycelial growth inhibition at 10 ppm at 28 +/-2 degC after 7 days by food poison technique; details: 168 h, read-out: GI
Fusarium oxysporum [19] = assay: Antifungal activity against Fusarium oxysporum assessed as mycelial growth inhibition at 1000 ppm at 28 +/-2 degC after 7 days by food poison technique; details: 168 h, read-out: GI
Fusarium oxysporum [20] = assay: Antifungal activity against Fusarium oxysporum assessed as mycelial growth inhibition at 100 ppm at 28 +/-2 degC after 7 days by food poison technique; details: 168 h, read-out: GI
Fusarium oxysporum [21] = assay: Antifungal activity against Fusarium oxysporum assessed as mycelial growth inhibition at 10 ppm at 28 +/-2 degC after 7 days by food poison technique; details: 168 h, read-out: GI
Colletotrichum falcatum [22] = assay: Antifungal activity against Glomerella tucumanensis assessed as mycelial growth inhibition at 1000 ppm at 28 +/-2 degC after 7 days by food poison technique; details: 168 h, read-out: GI
Colletotrichum falcatum [23] = assay: Antifungal activity against Glomerella tucumanensis assessed as mycelial growth inhibition at 100 ppm at 28 +/-2 degC after 7 days by food poison technique; details: 168 h, read-out: GI
Colletotrichum falcatum [24] = assay: Antifungal activity against Glomerella tucumanensis assessed as mycelial growth inhibition at 10 ppm at 28 +/-2 degC after 7 days by food poison technique; details: 168 h, read-out: GI

Work on `CCOP(=S)(OCC)O/C(COc1ccc(Cl)cc1)=N\N=C1/C(=O)Nc2ccccc21` yielded a Ratio (Curvularia pallescens [1]) of 2, a Ratio (Curvularia pallescens [2]) of 2 and a Ratio (Curvularia pallescens [3]) of 2. The Ratio (Curvularia pallescens [4]) was 2, the Ratio (Fusarium oxysporum [5]) was 2 and the Ratio (Fusarium oxysporum [6]) was 2. For the same compound, the Ratio (Fusarium oxysporum [7]) was 2, the Ratio (Fusarium oxysporum [8]) was 2 and the Ratio (Colletotrichum falcatum [9]) was 2. The Ratio (Colletotrichum falcatum [10]) was 2, the Ratio (Colletotrichum falcatum [11]) was 2 and the Ratio (Colletotrichum falcatum [12]) was 2. For the same compound, the MIC (Curvularia pallescens [13]) was 1000 µg/mL (≈ 2080 µM), the MIC (Fusarium oxysporum [14]) was 1000 µg/mL (≈ 2080 µM) and the MIC (Colletotrichum falcatum [15]) was 1000 µg/mL (≈ 2080 µM). It also gave an inhibition of growth at 1000 ppm (Curvularia pallescens [16]) of 100%, an inhibition of growth at 100 ppm (Curvularia pallescens [17]) of 84.8% and an inhibition of growth at 10 ppm (Curvularia pallescens [18]) of 78.2%. For the same compound, the inhibition of growth at 1000 ppm (Fusarium oxysporum [19]) was 100%, the inhibition of growth at 100 ppm (Fusarium oxysporum [20]) was 89.2% and the inhibition of growth at 10 ppm (Fusarium oxysporum [21]) was 80%. For the same compound, the inhibition of growth at 1000 ppm (Colletotrichum falcatum [22]) was 100%, the inhibition of growth at 100 ppm (Colletotrichum falcatum [23]) was 90.2% and the inhibition of growth at 10 ppm (Colletotrichum falcatum [24]) was 80.5%.
